Each block holds one molecule with its values, some of them ahead of it. Active and inactive are the calls of the source.
Assays:
[1] = CRF-BP/CRF-R2 complex antagonists, dose response, cell-based, uHTS hits, 384-well (AID 651639); assay type: functional, Homo sapiens; conditions: read-out: IC50_Mean
BJ [2] = assay: cytotoxicity toward BJ-TERT fibroblasts, dose response, cell-based, RAS-independent, luminescence (AID 1933); assay type: functional, Homo sapiens; conditions: Homo sapiens, BJ
[3] = cytotoxicity toward DRD oncogenic fibroblasts, dose response, cell-based, non-viral oncogenic, luminescence (AID 1934); assay type: functional; conditions: Homo sapiens
[4] = molecular target: T1, Corticotropin-releasing factor receptor 2/Corticotropin-releasing factor-binding protein (Homo sapiens, UniProt P24387+Q13324); assay: Dose Response confirmation of uHTS hits for small molecule antagonists of the CRF-binding protein and CRF-R2 receptor complex.; assay type: functional; conditions: read-out: IC50_Mean
T1 sequence (Q13324 whole entry): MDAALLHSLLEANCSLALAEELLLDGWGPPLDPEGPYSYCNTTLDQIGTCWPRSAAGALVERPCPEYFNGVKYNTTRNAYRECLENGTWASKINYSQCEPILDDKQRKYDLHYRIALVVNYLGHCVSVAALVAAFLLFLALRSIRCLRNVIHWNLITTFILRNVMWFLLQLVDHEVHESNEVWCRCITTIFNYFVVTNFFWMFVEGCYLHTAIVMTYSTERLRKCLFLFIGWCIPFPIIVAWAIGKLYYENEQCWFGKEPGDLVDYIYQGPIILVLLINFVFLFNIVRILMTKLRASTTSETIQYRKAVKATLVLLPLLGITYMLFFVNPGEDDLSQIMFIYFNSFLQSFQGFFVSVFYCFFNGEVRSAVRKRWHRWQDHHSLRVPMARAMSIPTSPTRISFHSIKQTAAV
T1 sequence (P24387 whole entry): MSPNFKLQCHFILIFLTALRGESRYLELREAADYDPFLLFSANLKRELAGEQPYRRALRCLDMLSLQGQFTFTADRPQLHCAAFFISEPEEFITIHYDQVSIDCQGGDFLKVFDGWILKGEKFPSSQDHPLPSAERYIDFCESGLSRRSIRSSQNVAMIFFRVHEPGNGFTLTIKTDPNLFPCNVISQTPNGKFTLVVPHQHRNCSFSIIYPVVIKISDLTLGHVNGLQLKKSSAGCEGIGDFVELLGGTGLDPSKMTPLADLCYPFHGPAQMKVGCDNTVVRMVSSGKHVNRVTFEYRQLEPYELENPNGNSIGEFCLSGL

[5] = molecular target: T1, Corticotropin-releasing factor receptor 2/Corticotropin-releasing factor-binding protein; assay: activators of CRF receptor 2 with binding protein – uHTS hits, confirmation (AID 602473); assay type: functional; conditions: read-out: EC50_Mean
BJ [6] = assay: cells; assay type: functional, cell-based, Homo sapiens; conditions: Homo sapiens, BJ
BJ [7] = assay: cytotoxicity toward BJ-TERT-LT-ST fibroblasts, dose response, cell-based, RAS-independent, luminescence (AID 1935); assay type: functional, Homo sapiens; conditions: Homo sapiens, BJ;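 further: BJ fibroblasts immortalized with TERT plus LT and ST oncogenes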
[8] = molecular target: T2, Sentrin-specific protease 8 (Homo sapiens, UniProt Q96LD8); assay type: functional;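 further: luminescence read-out of SENP8 inhibition, dose-response confirmation following an ultra-high-throughput screen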
T2 sequence (Q96LD8 whole entry): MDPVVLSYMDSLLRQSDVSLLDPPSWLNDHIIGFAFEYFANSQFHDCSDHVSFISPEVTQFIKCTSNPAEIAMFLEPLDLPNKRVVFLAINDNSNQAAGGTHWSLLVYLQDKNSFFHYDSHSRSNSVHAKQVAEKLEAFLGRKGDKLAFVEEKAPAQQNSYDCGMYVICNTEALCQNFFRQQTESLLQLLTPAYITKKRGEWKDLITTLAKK

[9] = molecular target: T3, Sentrin-specific protease 7 (Homo sapiens, UniProt Q9BQF6); assay type: functional;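 further: Luminescence-based dose-response confirmation of ultra-high-throughput screening hits, measuring inhibition of SENP7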
T3 sequence (Q9BQF6 whole entry): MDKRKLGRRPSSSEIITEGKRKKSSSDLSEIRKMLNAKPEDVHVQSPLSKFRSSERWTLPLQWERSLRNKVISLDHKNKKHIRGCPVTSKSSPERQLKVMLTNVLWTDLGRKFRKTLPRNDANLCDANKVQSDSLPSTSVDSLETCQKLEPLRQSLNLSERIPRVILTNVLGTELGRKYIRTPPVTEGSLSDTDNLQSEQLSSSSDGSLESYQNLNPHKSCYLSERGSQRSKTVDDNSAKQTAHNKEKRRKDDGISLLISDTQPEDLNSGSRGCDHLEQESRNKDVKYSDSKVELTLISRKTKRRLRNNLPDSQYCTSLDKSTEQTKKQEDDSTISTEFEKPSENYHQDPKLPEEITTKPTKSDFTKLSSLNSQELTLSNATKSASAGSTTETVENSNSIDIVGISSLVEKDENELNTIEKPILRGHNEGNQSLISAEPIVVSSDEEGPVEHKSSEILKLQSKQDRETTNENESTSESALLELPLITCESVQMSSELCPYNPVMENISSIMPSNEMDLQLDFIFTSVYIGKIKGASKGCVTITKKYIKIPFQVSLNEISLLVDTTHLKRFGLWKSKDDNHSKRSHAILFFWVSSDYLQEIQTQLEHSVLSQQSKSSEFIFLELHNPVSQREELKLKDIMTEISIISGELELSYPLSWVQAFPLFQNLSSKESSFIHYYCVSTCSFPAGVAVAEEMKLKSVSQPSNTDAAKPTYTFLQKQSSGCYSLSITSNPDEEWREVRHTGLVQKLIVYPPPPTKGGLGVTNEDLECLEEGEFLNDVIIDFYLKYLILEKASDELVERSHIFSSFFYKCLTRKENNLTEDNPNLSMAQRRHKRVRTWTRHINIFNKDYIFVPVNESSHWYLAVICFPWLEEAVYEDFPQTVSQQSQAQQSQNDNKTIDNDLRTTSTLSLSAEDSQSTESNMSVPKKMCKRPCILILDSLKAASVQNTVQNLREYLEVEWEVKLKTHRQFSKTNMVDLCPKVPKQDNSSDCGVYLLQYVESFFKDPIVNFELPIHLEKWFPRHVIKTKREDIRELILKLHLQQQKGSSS

[10] = molecular target: T4, Sentrin-specific protease 6 (Homo sapiens, UniProt Q9GZR1); assay type: functional;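 further: Luminescence-based dose-response confirmatory assay of SENP6 inhibition, following up an ultra-high-throughput screen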
T4 sequence (Q9GZR1 whole entry): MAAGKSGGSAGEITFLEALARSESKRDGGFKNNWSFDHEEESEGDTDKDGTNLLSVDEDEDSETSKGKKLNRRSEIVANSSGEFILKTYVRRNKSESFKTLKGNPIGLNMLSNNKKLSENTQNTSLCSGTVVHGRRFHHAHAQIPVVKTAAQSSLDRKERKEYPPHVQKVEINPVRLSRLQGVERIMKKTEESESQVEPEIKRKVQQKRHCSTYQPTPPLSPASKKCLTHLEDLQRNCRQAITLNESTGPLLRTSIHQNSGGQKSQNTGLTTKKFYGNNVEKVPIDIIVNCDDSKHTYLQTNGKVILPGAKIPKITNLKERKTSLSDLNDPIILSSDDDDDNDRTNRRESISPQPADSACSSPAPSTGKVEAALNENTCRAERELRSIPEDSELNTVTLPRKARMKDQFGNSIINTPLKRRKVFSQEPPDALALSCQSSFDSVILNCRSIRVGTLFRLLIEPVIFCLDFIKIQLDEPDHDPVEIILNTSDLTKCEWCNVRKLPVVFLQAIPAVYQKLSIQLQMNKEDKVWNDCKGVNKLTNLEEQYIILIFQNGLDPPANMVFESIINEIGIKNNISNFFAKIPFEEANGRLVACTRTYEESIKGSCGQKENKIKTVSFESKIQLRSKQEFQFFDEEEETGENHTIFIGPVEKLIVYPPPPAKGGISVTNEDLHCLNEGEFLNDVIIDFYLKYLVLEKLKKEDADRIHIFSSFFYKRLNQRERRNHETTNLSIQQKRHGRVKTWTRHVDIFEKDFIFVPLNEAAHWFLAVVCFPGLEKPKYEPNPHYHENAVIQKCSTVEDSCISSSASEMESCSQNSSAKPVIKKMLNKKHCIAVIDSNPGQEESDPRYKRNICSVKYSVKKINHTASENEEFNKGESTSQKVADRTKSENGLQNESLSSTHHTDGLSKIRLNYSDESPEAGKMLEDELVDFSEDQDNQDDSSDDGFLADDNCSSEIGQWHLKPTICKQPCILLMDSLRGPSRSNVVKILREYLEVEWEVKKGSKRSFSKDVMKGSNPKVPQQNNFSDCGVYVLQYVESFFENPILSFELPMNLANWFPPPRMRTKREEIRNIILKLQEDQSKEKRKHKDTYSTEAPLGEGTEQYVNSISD

Caspase-3 = molecular target: T5, Caspase-3 (Homo sapiens, UniProt P42574); assay type: functional;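 further: Dose-response selectivity test against caspase-3 for candidate inhibitors of sentrin-specific proteases (SENPs)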
T5 sequence (P42574 whole entry): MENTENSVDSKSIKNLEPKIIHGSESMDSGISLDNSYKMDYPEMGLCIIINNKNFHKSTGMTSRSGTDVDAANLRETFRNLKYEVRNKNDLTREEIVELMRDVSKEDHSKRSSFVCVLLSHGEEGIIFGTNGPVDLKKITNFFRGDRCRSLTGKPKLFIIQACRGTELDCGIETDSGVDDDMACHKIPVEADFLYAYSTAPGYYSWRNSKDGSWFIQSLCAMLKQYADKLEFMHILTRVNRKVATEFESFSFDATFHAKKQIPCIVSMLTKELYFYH

[11] = molecular target: T6, Low molecular weight phosphotyrosine protein phosphatase (Homo sapiens, UniProt P24666); assay type: functional; conditions: read-out: IC50_Mean;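 further: Dose-response confirmation assay measuring inhibition of LMPTP enzyme activity by fluorescence intensity read-out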
T6 sequence (P24666 whole entry): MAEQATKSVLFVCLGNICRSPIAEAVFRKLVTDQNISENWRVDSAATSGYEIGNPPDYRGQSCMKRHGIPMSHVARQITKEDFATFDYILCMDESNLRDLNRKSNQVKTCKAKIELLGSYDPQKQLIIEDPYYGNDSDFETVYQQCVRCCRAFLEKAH

Protein Wnt-3a = Protein Wnt-3a (Mus musculus, UniProt P27467); assay: Wnt3a-driven reporter signaling inhibition, dose response, selectivity assay for Gli-SUFU antagonist project, Wnt-LIGHT cells, luminescence (AID 651570); assay type: functional; conditions: read-out: IC50_Mean;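 further: Wnt-LIGHT reporter cells stimulated with conditioned medium from Wnt3a-producing cells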
Protein Wnt-3a, sequence (P27467 whole entry): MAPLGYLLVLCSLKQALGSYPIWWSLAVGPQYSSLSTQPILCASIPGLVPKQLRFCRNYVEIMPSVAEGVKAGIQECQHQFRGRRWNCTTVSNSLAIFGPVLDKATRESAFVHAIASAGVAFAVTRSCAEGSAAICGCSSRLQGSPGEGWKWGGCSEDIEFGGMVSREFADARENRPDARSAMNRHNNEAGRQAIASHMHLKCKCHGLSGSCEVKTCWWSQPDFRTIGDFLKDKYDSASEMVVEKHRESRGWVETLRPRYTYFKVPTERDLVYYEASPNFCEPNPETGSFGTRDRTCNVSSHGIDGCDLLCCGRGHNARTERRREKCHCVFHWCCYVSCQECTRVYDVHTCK

[12] = inhibitors of intracellular T. cruzi replication, confirmation, NIH3T3 host cells, beta-gal luminescence (AID 2044); assay type: functional, cell-based;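 further: intracellular parasites grown in NIH/3T3 mouse fibroblasts as host cells; luminescent beta-galactosidase reporter signal from transgenic T. cruzi replicating inside host cells; inhibitors lower the luminescence signal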
[13] = cytotoxicity toward NIH3T3 fibroblasts, dose response, counter-screen, cell-based, ATP luminescence, mouse fibroblasts (AID 2010); assay type: functional;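 further: cells exposed to compound for about 90 hours before reading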
[14] = human group III sPLA2 inhibitors, dose response, biochemical, QFRET, IC50 (AID 743457);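 further: green fluorescence rise as the enzyme cleaves BODIPY PC-A2 in liposomes; potency for inhibition of the enzyme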
[15] = molecular target: T7, Polyadenylate-binding protein 1 (Homo sapiens, UniProt P11940); assay: PABP1 MLLE–PAM2 interaction inhibitors, dose response, miRNA deadenylation inhibitor project, biochemical, fluorescence polarization, Cy5-PAM2 peptide, secondary (AID 602260); assay type: functional; conditions: read-out: IC50_Mean
T7 sequence (P11940 whole entry): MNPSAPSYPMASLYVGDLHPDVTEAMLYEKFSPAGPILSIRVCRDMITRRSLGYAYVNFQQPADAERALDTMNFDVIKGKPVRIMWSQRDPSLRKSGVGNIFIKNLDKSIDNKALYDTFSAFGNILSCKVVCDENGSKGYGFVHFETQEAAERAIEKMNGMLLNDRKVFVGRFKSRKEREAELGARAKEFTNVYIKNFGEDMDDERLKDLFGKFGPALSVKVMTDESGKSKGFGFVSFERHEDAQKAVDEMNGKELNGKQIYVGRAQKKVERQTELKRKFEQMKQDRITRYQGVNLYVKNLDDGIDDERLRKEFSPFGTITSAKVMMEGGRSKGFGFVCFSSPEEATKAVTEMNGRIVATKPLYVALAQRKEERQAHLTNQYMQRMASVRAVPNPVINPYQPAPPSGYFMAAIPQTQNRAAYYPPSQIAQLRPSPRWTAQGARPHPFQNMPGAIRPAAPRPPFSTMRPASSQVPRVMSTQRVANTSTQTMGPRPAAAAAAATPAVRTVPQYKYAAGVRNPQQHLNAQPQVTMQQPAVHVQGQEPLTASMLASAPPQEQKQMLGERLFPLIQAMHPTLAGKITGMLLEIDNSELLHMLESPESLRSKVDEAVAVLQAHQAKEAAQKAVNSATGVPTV

[16] = molecular target: T7, Polyadenylate-binding protein 1; assay: PABP1 MLLE–PAM2 binding inhibitor potency, dose response, biochemical, fluorescence polarization, FITC-PAM2 peptide (AID 602259); assay type: functional; conditions: read-out: IC50_Mean
Paired box protein Pax-8 = Paired box protein Pax-8 (Homo sapiens, UniProt Q06710); assay: inhibitors of PAX8-driven TPO luciferase reporter, dose response, RMG-I cells, cherry-pick (AID 687027); assay type: functional, cell-based;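 further: luciferase reporter driven by Pax8 target thyroperoxidase promoter measured by SteadyGlo luminescence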
Paired box protein Pax-8, sequence (Q06710 whole entry): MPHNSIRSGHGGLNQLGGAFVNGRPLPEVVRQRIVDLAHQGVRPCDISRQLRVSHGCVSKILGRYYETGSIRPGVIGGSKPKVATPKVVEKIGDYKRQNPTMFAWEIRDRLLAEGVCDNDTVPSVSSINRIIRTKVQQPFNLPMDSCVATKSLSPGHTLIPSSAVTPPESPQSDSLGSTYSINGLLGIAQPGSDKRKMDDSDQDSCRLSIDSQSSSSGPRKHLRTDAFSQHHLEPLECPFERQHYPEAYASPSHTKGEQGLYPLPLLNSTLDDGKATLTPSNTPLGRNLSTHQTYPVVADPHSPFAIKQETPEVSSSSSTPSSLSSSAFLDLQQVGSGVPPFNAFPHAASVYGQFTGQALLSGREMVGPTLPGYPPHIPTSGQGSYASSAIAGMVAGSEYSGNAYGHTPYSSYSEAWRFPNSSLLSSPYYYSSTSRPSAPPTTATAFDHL

[17] = NIH:OVCAR-3 ovarian cancer cell cytotoxicity, dose response, PAX8 inhibitor project, plate reader, dry powder samples (AID 743044); assay type: functional, cell-based
[18] = cytotoxicity in OVCAR8 ovarian cancer cells, dose response, PAX8 project, cell-based, plate reader, dry powder samples (AID 743197); assay type: functional; conditions: OVCAR-8
[19] = IGROV1 ovarian cancer cell cytotoxicity, dose response, PAX8 inhibitor project, plate reader, dry powder samples (AID 743043); assay type: functional, cell-based; conditions: IGROV-1

SMILES: Oc1cc(C(F)(F)F)nc2ccc(OC(F)(F)F)cc12
IC50 [1]: > 20 µM (inactive) | EC50 (BJ [2]): 38.8 µM (active) | EC50 [3]: 38.4 µM (active) | IC50 [4]: 4240 nM (active) | EC50 [5]: 5.39 µM (active) | EC50 (BJ [6]): 41.4 µM (active) | EC50 (BJ [7]): > 150 µM (not active)

IC50 [1]: > 20 µM (inactive) | IC50 [4]: < 368 nM (active) | EC50 [5]: > 53 µM (inactive)
SMILES: COc1ccc(NC(=O)NC(C)c2ccc3c(c2)OCO3)c(OC)c1 (centres undefined)

IC50 [9]: 6.48 µM (active) | IC50 [10]: 19.7 µM (active) | IC50 (Caspase-3): 19.8 µM (active)
SMILES: CCOC(=O)/C=C(\C)N1N=C(c2ccccc2)CC1c1ccccc1 (centres undefined)
IC50 [8]: 36.1 µM (active)

IC50 [9]: 13.9 µM (active) | IC50 [10]: 19 µM (active) | IC50 (Caspase-3): 16.2 µM (active)
SMILES: O=C1/C(=C/N(C(=O)c2ccco2)c2ccc(Br)cc2)Sc2ccccc21
IC50 [8]: 24.7 µM (active)

IC50 [11]: 41.8 µM (inactive)
SMILES: N=c1c(C(=O)NCc2ccco2)cc2c(=O)n3ccccc3nc2n1Cc1ccc(Cl)cc1

IC50 (Protein Wnt-3a): 7.13 µM (active)
SMILES: c1ccc(C[n+]2c(-c3ccccc3)cn3c2SCCC3)cc1

SMILES: CCOc1ccccc1/N=C1\SC(CC(=O)Nc2ccc(OC)cc2OC)C(=O)N1CCC1=CCCCC1 (centres undefined)
IC50 [1]: > 20 µM (inactive) | EC50 [12]: 1.98 µM (active) | IC50 [4]: < 368 nM (active) | EC50 [13]: > 60 µM (not active) | EC50 [5]: > 53 µM (inactive)

IC50 [14]: > 122 µM (inactive) | IC50 [15]: > 66 µM (inactive) | IC50 [16]: > 66 µM (inactive)
SMILES: C/C(=N\NC(=S)NCCc1ccccc1)c1ccc(O)cc1O

SMILES: C[C@@H]1CN([C@@H](C)CO)C(=O)Cc2cc(NC(=O)Nc3ccc(C(F)(F)F)cc3)ccc2O[C@H]1CN(C)Cc1ccc2c(c1)OCO2
AC50 (Paired box protein Pax-8): 7.85 µM (active) | AC50 [17]: 24 µM (active) | AC50 [18]: 41.5 µM (active) | AC50 [19]: 63.7 µM (active)

IC50 [14]: > 122 µM (inactive)
SMILES: O=C1C(=O)N(Cc2ccc(-c3ccc(Cl)nc3)cc2)c2ccc(OC(F)(F)F)cc21

IC50 [14]: > 40.6 µM (inactive)
SMILES: COc1ccc(-n2c(SCC(=O)NN=C(S)Nc3ccccc3)nc3ccccc3c2=O)cc1

Reference: ChEMBL document CHEMBL1201862, “PubChem BioAssay data set” (2004)
